Results published in article PMC7062867, “Targeting the Oncogenic TBX2 Transcription Factor With Chromomycins” (Frontiers in Chemistry, 2020).

How the values were obtained:
TBX2 [1] = biological target: T1, TBX2 (Homo sapiens, UniProt Q13207); assay: microscale thermophoresis; also recovered by reverse affinity chromatography with UPLC-MS; type: binding
T1 sequence (Q13207 94-287): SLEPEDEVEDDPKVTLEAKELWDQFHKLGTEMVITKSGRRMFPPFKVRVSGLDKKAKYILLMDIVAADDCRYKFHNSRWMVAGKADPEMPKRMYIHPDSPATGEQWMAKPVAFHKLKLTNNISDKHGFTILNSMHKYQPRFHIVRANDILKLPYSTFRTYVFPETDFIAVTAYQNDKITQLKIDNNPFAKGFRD

TBX2 [2] = biological target: T1, TBX2; assay: microscale thermophoresis; type: binding

Row | Structure (SMILES) | Kd (TBX2 [1]) [µM] | Kd (TBX2 [2]) [µM]
1 | CO[C@@H]1[C@H](O)C[C@@H](O[C@@H]2C[C@H](Oc3cc4cc5c(c(O)c4c(O)c3C)C(=O)C(O[C@H]3C[C@@H](O[C@H]4C[C@@H](O[C@H]6C[C@](C)(O)[C@@H](OC(=O)C(C)C)[C@H](C)O6)[C@H](O)[C@@H](C)O4)[C@H](O)[C@@H](C)O3)C([C@H](OC)C(=O)[C@@H](O)[C@@H](C)O)C5)O[C@H](C)[C@@H]2OC(C)=O)O[C@@H]1C (some centres unmarked) [CA5, chromomycin A5] | 31.3 ± 23.3 | 
2 | CO[C@@H]1[C@H](O)C[C@@H](O[C@@H]2C[C@H](Oc3cc4cc5c(c(O)c4c(O)c3C)C(=O)C(O[C@H]3C[C@@H](O[C@H]4C[C@@H](O[C@H]6C[C@](C)(O)[C@@H](OC(C)=O)[C@H](C)O6)[C@H](O)[C@@H](C)O4)[C@H](O)[C@@H](C)O3)C([C@H](OC)C(=O)[C@@H](O)[C@@H](C)O)C5)O[C@H](C)[C@@H]2OC(C)=O)O[C@@H]1C (some centres unmarked) [CA6, chromomycin A6] |  | 24.4 ± 13.6
